In ChEMBL document CHEMBL1201862, “PubChem BioAssay data set” (2004):
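Assay format: 96-well plates, 48-hour exposure. GI50 marks 50% less growth.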 The source made the active and inactive calls. Rule as the data show it: active = GI50 up to about 1.1 µM and inactive = higher.

Key:
Experiment in all cases: growth of human tumour cells (NCI), 48 h
ACHN = test system: ACHN
CCRF-CEM = test system: CCRF-CEM
COLO 205 = test system: COLO 205
HCT-116 = test system: HCT-116
HOP-92 = test system: HOP-92
LOX IMVI = test system: LOX IMVI
Malme-3M = test system: Malme-3M
NCI-H460 = test system: NCI-H460
NCI-H522 = test system: NCI-H522
OVCAR-3 = test system: OVCAR-3
PC-3 = test system: PC-3
RPMI-8226 = test system: RPMI-8226
SF-268 = test system: SF-268
SF-295 = test system: SF-295
SK-MEL-2 = test system: SK-MEL-2
SK-MEL-5 = test system: SK-MEL-5
SN12C = test system: SN12C
SNB-19 = test system: SNB-19
SNB-75 = test system: SNB-75
UACC-257 = test system: UACC-257

O=C(/C=C/c1ccc(-c2ccccc2)cc1)NCc1ccc(C(=O)NCCc2c[nH]c3ccccc23)cc1
GI50 (ACHN): 35.8 µM (inactive)
GI50 (CCRF-CEM): 13.9 µM (inactive)
GI50 (COLO 205): > 100 µM (inactive)
GI50 (HCT-116): 46.9 µM (inactive)
GI50 (HOP-92): 20.1 µM (inactive)
GI50 (LOX IMVI): 48.9 µM (inactive)
GI50 (Malme-3M): 33.4 µM (inactive)
GI50 (NCI-H460): 31.7 µM (inactive)
GI50 (NCI-H522): 21.3 µM (inactive)
GI50 (OVCAR-3): 28.9 µM (inactive)
GI50 (PC-3): 23.5 µM (inactive)
GI50 (RPMI-8226): 60.8 µM (inactive)
GI50 (SF-268): 39.7 µM (inactive)
GI50 (SF-295): 11.1 µM (inactive)
GI50 (SK-MEL-2): 33.5 µM (inactive)
GI50 (SK-MEL-5): 26 µM (inactive)
GI50 (SN12C): 5.08 µM (inactive)
GI50 (SNB-19): 21.7 µM (inactive)
GI50 (SNB-75): 11.2 µM (inactive)
GI50 (UACC-257): 67.3 µM (inactive)

CCC1CN2CCc3cc(OC)c(OC)cc3C2CC1CC1c2cc(OC)c(OC)cc2CCN1C(=O)C(Cc1c[nH]c2ccccc12)NC(=O)OC(C)(C)C (stereo not given)
GI50 (ACHN): 3.84 µM (inactive)
GI50 (CCRF-CEM): 3.1 µM (inactive)
GI50 (COLO 205): 1.57 µM (inactive)
GI50 (HCT-116): 1.6 µM (inactive)
GI50 (HOP-92): 2.62 µM (inactive)
GI50 (LOX IMVI): 1.88 µM (inactive)
GI50 (Malme-3M): 1.74 µM (inactive)
GI50 (NCI-H460): 2.39 µM (inactive)
GI50 (NCI-H522): 2.28 µM (inactive)
GI50 (OVCAR-3): 3.3 µM (inactive)
GI50 (PC-3): 3.12 µM (inactive)
GI50 (RPMI-8226): 2.52 µM (inactive)
GI50 (SF-268): 5.4 µM (inactive)
GI50 (SF-295): 3.97 µM (inactive)
GI50 (SK-MEL-2): 2.67 µM (inactive)
GI50 (SK-MEL-5): 1.67 µM (inactive)
GI50 (SN12C): 3.26 µM (inactive)
GI50 (SNB-19): 7.59 µM (inactive)
GI50 (SNB-75): 2.59 µM (inactive)
GI50 (UACC-257): 2.71 µM (inactive)

CO/C(=C/C(=O)C(Cl)(Cl)Cl)CC/C(=C\C(=O)C(Cl)(Cl)Cl)OC
GI50 (ACHN): 24.5 µM (inactive)
GI50 (CCRF-CEM): 24.3 µM (inactive)
GI50 (COLO 205): 40.7 µM (inactive)
GI50 (HCT-116): 18.8 µM (inactive)
GI50 (HOP-92): 18.4 µM (inactive)
GI50 (LOX IMVI): 19.6 µM (inactive)
GI50 (Malme-3M): 23 µM (inactive)
GI50 (NCI-H460): 29.1 µM (inactive)
GI50 (NCI-H522): 20.1 µM (inactive)
GI50 (OVCAR-3): 26.8 µM (inactive)
GI50 (PC-3): 27.4 µM (inactive)
GI50 (RPMI-8226): 22.3 µM (inactive)
GI50 (SF-268): 26.1 µM (inactive)
GI50 (SF-295): 36.3 µM (inactive)
GI50 (SK-MEL-2): 32.4 µM (inactive)
GI50 (SK-MEL-5): 34.2 µM (inactive)
GI50 (SN12C): 23.2 µM (inactive)
GI50 (SNB-19): 45.8 µM (inactive)
GI50 (SNB-75): 40.6 µM (inactive)
GI50 (UACC-257): 19.2 µM (inactive)

CC(=O)NNc1nc(C)c(C(/C=C/c2ccc([N+](=O)[O-])cc2)=N/NC(N)=O)s1
GI50 (ACHN): > 100 µM (inactive)
GI50 (CCRF-CEM): > 100 µM (inactive)
GI50 (COLO 205): > 100 µM (inactive)
GI50 (HCT-116): > 100 µM (inactive)
GI50 (HOP-92): > 100 µM (inactive)
GI50 (LOX IMVI): > 100 µM (inactive)
GI50 (Malme-3M): > 100 µM (inactive)
GI50 (NCI-H460): > 100 µM (inactive)
GI50 (NCI-H522): > 100 µM (inactive)
GI50 (OVCAR-3): > 100 µM (inactive)
GI50 (PC-3): > 100 µM (inactive)
GI50 (RPMI-8226): > 100 µM (inactive)
GI50 (SF-268): > 100 µM (inactive)
GI50 (SF-295): > 100 µM (inactive)
GI50 (SK-MEL-2): > 100 µM (inactive)
GI50 (SK-MEL-5): > 100 µM (inactive)
GI50 (SN12C): > 100 µM (inactive)
GI50 (SNB-19): > 100 µM (inactive)
GI50 (SNB-75): > 100 µM (inactive)
GI50 (UACC-257): > 100 µM (inactive)

Cc1ccc(S(=O)(=O)NC(CO)C(=O)O)cc1 (stereo not given)
GI50 (ACHN): > 100 µM (inactive)
GI50 (CCRF-CEM): > 100 µM (inactive)
GI50 (COLO 205): > 100 µM (inactive)
GI50 (HCT-116): > 100 µM (inactive)
GI50 (HOP-92): > 100 µM (inactive)
GI50 (LOX IMVI): > 100 µM (inactive)
GI50 (Malme-3M): > 100 µM (inactive)
GI50 (NCI-H460): > 100 µM (inactive)
GI50 (NCI-H522): > 100 µM (inactive)
GI50 (OVCAR-3): > 100 µM (inactive)
GI50 (PC-3): > 100 µM (inactive)
GI50 (RPMI-8226): > 100 µM (inactive)
GI50 (SF-268): > 100 µM (inactive)
GI50 (SF-295): > 100 µM (inactive)
GI50 (SK-MEL-2): > 100 µM (inactive)
GI50 (SK-MEL-5): > 100 µM (inactive)
GI50 (SN12C): > 100 µM (inactive)
GI50 (SNB-19): > 100 µM (inactive)
GI50 (SNB-75): > 100 µM (inactive)
GI50 (UACC-257): > 100 µM (inactive)

COc1cc(OCCN(C)C)c2[nH]c(C(=O)N3CC(CCl)c4ccc(N)cc43)cc2c1 (stereo not given)
GI50 (ACHN): 0.0178 µM (active)
GI50 (CCRF-CEM): 0.0199 µM (active)
GI50 (COLO 205): 0.0395 µM (active)
GI50 (HCT-116): 0.0238 µM (active)
GI50 (HOP-92): 0.0596 µM (active)
GI50 (LOX IMVI): 0.021 µM (active)
GI50 (Malme-3M): 0.0904 µM (active)
GI50 (NCI-H460): 0.0147 µM (active)
GI50 (NCI-H522): 0.0139 µM (active)
GI50 (OVCAR-3): 0.0282 µM (active)
GI50 (PC-3): 0.0241 µM (active)
GI50 (RPMI-8226): 0.0358 µM (active)
GI50 (SF-268): 0.0264 µM (active)
GI50 (SF-295): 0.0369 µM (active)
GI50 (SK-MEL-2): 0.0381 µM (active)
GI50 (SK-MEL-5): 0.0342 µM (active)
GI50 (SN12C): 0.0597 µM (active)
GI50 (SNB-19): 0.114 µM (active)
GI50 (SNB-75): 0.0676 µM (active)
GI50 (UACC-257): 0.0546 µM (active)
